Source: patent publication US20260138990A1, “TRICYCLIC FUSED IMIDAZOLE COMPOUNDS AS CD38 MODULATORS AND USES THEREOF” (AEOVIAN PHARMACEUTICALS, INC., priority 2023, published 2026)
pIC50: −log10 of the molar value.

Legend:
mouse CD38 = molecular target: T1, mouse CD38 (Mus musculus, UniProt P56528); test: NAD+ cyclase activity assay with mouse recombinant CD38 protein (ε-NAD fluorescence); type: biochemical; details: 0.6 nM mouse CD38, substrate ε-NAD, 30 min preincubation, fluorescence 300/410 nm
T1 construct: purchased Bio-Techne GmbH 4947-AC
T1 sequence (P56528 1-304): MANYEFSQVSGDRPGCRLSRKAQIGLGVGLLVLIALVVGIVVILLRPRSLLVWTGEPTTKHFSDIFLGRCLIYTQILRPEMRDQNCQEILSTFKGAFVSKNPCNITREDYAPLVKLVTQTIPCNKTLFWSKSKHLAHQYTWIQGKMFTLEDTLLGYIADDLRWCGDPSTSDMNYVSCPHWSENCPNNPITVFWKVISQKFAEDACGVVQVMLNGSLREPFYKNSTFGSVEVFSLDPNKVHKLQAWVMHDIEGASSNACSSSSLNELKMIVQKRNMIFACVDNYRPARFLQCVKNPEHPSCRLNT
Procedure: (§1) Example 4: NAD^+ Cydase Activity Assay with Human or Mouse Recombinant CD38 Protein
(§2) The following assay was used to determine the ability of compounds of the invention to inhibit the hydrolysis of NAD^+ by the human or mouse enzyme, CD38.
(§3) Reaction buffer: 40 mM HEPES/NaOH pH 7.5, 250 mM sucrose, 0.01% Tween
(§4) Final concentrations: 0.6 nM mouse CD38 (4947-AC, Bio-Techne GmbH) 1.9 nM human CD38 (AVI2404, Bio-Techne GmbH)
(§5) Substrate: […] Nicotinamide 1,N6-ethenoadenine dinucleotide (&-NAD)
(§6) Read-out: Fluorescence intensity (extinction 300 nm/emission 410 nm)
(§7) Required reaction buffer, required CD38 concentration in reaction buffer and required e-NAD concentration in reaction buffer were prepared. Thereafter, 8 μL of CD38 in reaction buffer was added to High Control and compound concentration wells in 384 well plate (Corning #4514, 384 well, nonbinding surface, low volume, round bottom) and 8 μL of reaction buffer to Low Control. Compound dilutions were transferred via pintool technology that transfers 42.5 nL compound dilutions (12-point dose-response with factor three dilutions in 100% DMSO) well-to-well. Plate was subsequently shaken for 15 s at 1450 rpm and sealed for incubation for 30 min at room temperature. Thereafter, 2 μL of e-NAD in reaction buffer were added with Integra Voyager. After shaking for 15 s at 1450 rpm, plate was sealed, and assay signal were measured continuously with PHERAstar® fluorescence intensity module (extinction 300 nm/emission 410 nm).
(§8) Dose-response curves were constructed using twelve-pointfactor three dilutions in triplicates per plate. High control (full enzyme activity) was set to assay signal of CD38 and e-NAD in presence of vehicle (DMSO) and Low control (full enzyme inhibition) was set to assay signal of e-NAD and vehicle (DMSO) in absence of CD38. For data analysis, fluorescent signal of traces corresponding to each compound concentration and High and Low control were monitored over time. Each run, High Control (full enzyme activity) was fitted to Linear equation via GraphPad Prism to determine CD38 activity from the slope and determine the time interval of linear phase of reaction to account for minor fluctuations. Thereafter, slopes of all compound concentrations were determined via fitting to same linear equation (GraphPad Prism) over the same time interval as determined for High control. […] Unless otherwise stated, fitting of curves were fixed to 100%-inhibition and unlocked for 0%-inhibition.

human CD38 = molecular target: T2, human CD38 (Homo sapiens, UniProt P28907); test: NAD+ cyclase activity assay with human recombinant CD38 protein (ε-NAD fluorescence); type: biochemical; details: 1.9 nM human CD38, substrate ε-NAD, 30 min preincubation, fluorescence 300/410 nm
T2 construct: purchased Bio-Techne GmbH AVI2404
T2 sequence (P28907 1-300): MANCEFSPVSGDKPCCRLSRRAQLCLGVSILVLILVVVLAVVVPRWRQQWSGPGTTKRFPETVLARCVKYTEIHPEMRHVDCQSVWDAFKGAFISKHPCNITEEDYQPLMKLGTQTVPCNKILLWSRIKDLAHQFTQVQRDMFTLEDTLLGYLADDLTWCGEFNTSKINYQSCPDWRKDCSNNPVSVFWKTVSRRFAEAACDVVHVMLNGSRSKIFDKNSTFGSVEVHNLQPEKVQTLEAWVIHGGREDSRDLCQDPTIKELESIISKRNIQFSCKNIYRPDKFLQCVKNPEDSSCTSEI
Procedure: as §1, §2, §3, §4, §5, §6, §7, §8

Row | SMILES | pIC50 (mouse CD38) | pIC50 (human CD38)
1 | C[C@H]1CCCC[C@@H]1NC(=O)c1cc(F)c2c(c1)-c1cncn1CCO2 (relative stereo) [Compound 174A, 8-Fluoro-N-(trans-2-methylcyclohexyl)-5,6-dihydrobenzo[f]imidazo[1,5-d][1,4]oxazepine-10-carboxamide] | > 9.00 | > 7.52
2 | C[C@@H]1CCCC[C@@H]1NC(=O)c1cc(F)c2c(c1)-c1cncn1CCO2 (relative stereo) [Compound 175A, 8-Fluoro-N-(cis-2-methylcyclohexyl)-5,6-dihydrobenzo[f]imidazo[1,5-d][1,4]oxazepine-10-carboxamide] | 8.00 to 9.00 | > 7.52
3 | C[C@@H]1CCC[C@@H](C)C1NC(=O)c1cc(F)c2c(c1)-c1cncn1CCO2 (relative stereo) [Compound 177A, N-(trans-2-cis-6-Dimethylcyclohexyl)-8-fluoro-5,6-dihydrobenzo[f]imidazo[1,5-d][1,4]oxazepine-10-carboxamide] | 8.00 to 9.00 | > 7.52
4 | C[C@@H]1C[C@H](CC(F)(F)F)CC[C@@H]1NC(=O)c1cc(Cl)c2c(c1)-c1cncn1CCO2 (relative stereo) [Compound 184A, 8-Chloro-N-(cis-2-methyl-cis-4-(2,2,2-trifluoroethyl)cyclohexyl)-5,6-dihydrobenzo[f]imidazo[1,5-d][1,4]oxazepine-10-carboxamide] |  | 6.00 to 7.00
5 | C[C@@H]1C[C@H](CC(F)(F)F)CC[C@@H]1NC(=O)c1cc(F)c2c(c1)-c1cncn1CCO2 (relative stereo) [Compound 186A, 8-Fluoro-N-(cis-2-methyl-cis-4-(2,2,2-trifluoroethyl)cyclohexyl)-5,6-dihydrobenzo[f]imidazo[1,5-d][1,4]oxazepine-10-carboxamide] |  | 7.00 to 7.52
6 | O=C(N[C@@H]1CCCOC1)c1ccc2c(c1)-c1cncn1CCO2 [Compound 1A, (R)—N-(Tetrahydro-2H-pyran-3-yl)-5,6-dihydrobenzo[f]imidazo[1,5-d][1,4]oxazepine-10-carboxamide] | > 9.00 | > 7.52
7 | O=C(N[C@@H]1CCS(=O)(=O)C1)c1ccc2c(c1)-c1cncn1CCO2 [Compound 2A, (R)—N-(1,1-Dioxidotetrahydrothiophen-3-yl)-5,6-dihydrobenzo[f]imidazo[1,5-d][1,4]oxazepine-10-carboxamide] | 8.00 to 9.00 | > 7.52
8 | COCCO[C@H]1CC[C@H](NC(=O)c2ccc3c(c2)-c2cncn2CCO3)CC1 [Compound 3A, N-((1r,4r)-4-(2-Methoxyethoxy)cyclohexyl)-5,6-dihydrobenzo[f]imidazo[1,5-d][1,4]oxazepine-10-carboxamide] | 8.00 to 9.00 | > 7.52
9 | CS(=O)(=O)N1CCC(NC(=O)c2ccc3c(c2)-c2cncn2CCO3)CC1 [Compound 4A, N-(1-(Methylsulfonyl)piperidin-4-yl)-5,6-dihydrobenzo[f]imidazo[1,5-d][1,4]oxazepine-10-carboxamide] | 8.00 to 9.00 | > 7.52
10 | O=C(NC1CCC(F)(F)CC1)c1ccc2c(c1)-c1cncn1CCO2 [Compound 5A, N-(4,4-Difluorocyclohexyl)-5,6-dihydrobenzo[f]imidazo[1,5-d][1,4]oxazepine-10-carboxamide] | > 9.00 | > 7.52
11 | O=C(N[C@@H]1CCCOC1)c1ccc2c(n1)-n1cncc1CCO2 [Compound 42A, (R)—N-(tetrahydro-2H-pyran-3-yl)-6,7-dihydroimidazo[1,5-d]pyrido[3,2-b][1,4]oxazepine-2-carboxamide] | 7.00 to 8.00 | 
12 | O=C(N[C@@H]1CCCOC1)c1ccc2c(n1)-n1cnc(c1)CCO2 [Compound 43A, (Z)—N—((R)-Tetrahydro-2H-pyran-3-yl)-5,6-dihydro-1,4-(metheno)pyrido[3,2-b][1,4,6]oxadiazonine-10-carboxamide] |  | < 6.00
13 | COc1nc2cc(NC(=O)c3ccc4c(c3)-c3cncn3CCO4)ccc2s1 [Compound 44A, N-(2-Methoxybenzo[d]thiazol-5-yl)-5,6-dihydrobenzo[f]imidazo[1,5-d][1,4]oxazepine-10-carboxamide] |  | > 7.52
14 | COCCOc1nc2cc(NC(=O)c3ccc4c(c3)-c3cncn3CCO4)ccc2s1 [Compound 45A, N-(2-(2-Methoxyethoxy)benzo[d]thiazol-5-yl)-5,6-dihydrobenzo[f]imidazo[1,5-d][1,4]oxazepine-10-carboxamide] |  | > 7.52
15 | COCCO[C@H]1CC[C@H](NC(=O)c2cc3c(c(C)c2C)OCCn2cncc2-3)CC1 [Compound 179A, N-((1r,4r)-4-(2-Methoxyethoxy)cyclohexyl)-8,9-dimethyl-5,6-dihydrobenzo[f]imidazo[1,5-d][1,4]oxazepine-10-carboxamide] |  | 6.00 to 7.00
16 | Cc1c(C(=O)NC2CCC(F)(F)CC2)cc2c(c1C)OCCn1cncc1-2 [Compound 180A, N-(4,4-Difluorocyclohexyl)-8,9-dimethyl-5,6-dihydrobenzo[f]imidazo[1,5-d][1,4]oxazepine-10-carboxamide] |  | 6.00 to 7.00
17 | O=C(NC1CCCC(C(F)(F)F)C1)c1cc(Cl)c2c(c1)-c1cncn1CCO2 (centres unmarked) [Compound 181A, 8-Chloro-N-(3-(trifluoromethyl)cyclohexyl)-5,6-dihydrobenzo[f]imidazo[1,5-d][1,4]oxazepine-10-carboxamide] |  | > 7.52
18 | Cc1cc(CC(F)(F)F)ccc1NC(=O)c1cc(Cl)c2c(c1)-c1cncn1CCO2 [Compound 182A, 8-Chloro-N-(2-methyl-4-(2,2,2-trifluoroethyl)phenyl)-5,6-dihydrobenzo[f]imidazo[1,5-d][1,4]oxazepine-10-carboxamide] |  | 7.00 to 7.52
19 | CC1CC(CC(F)(F)F)CCC1NC(=O)c1cc(Cl)c2c(c1)-c1cncn1CCO2 (centres unmarked) [Compound 183A, 8-Chloro-N-(2-methyl-4-(2,2,2-trifluoroethyl)cyclohexyl)-5,6-dihydrobenzo[f]imidazo[1,5-d][1,4]oxazepine-10-carboxamide] |  | > 7.52
20 | CC1CC(CC(F)(F)F)CCC1NC(=O)c1cc(F)c2c(c1)-c1cncn1CCO2 (centres unmarked) [Compound 185A, 8-Fluoro-N-(2-methyl-4-(2,2,2-trifluoroethyl)cyclohexyl)-5,6-dihydrobenzo[f]imidazo[1,5-d][1,4]oxazepine-10-carboxamide] |  | > 7.52
21 | O=C(N[C@H]1CC[C@H](OCC(F)(F)F)CC1)c1cc2c(c(F)c1F)OCCn1cncc1-2 [Compound 187A, 8,9-Difluoro-N-((1r,4r)-4-(2,2,2-trifluoroethoxy)cyclohexyl)-5,6-dihydrobenzo[f]imidazo[1,5-d][1,4]oxazepine-10-carboxamide] |  | > 7.52
22 | O=C(N[C@H]1CC[C@@H](OCC(F)(F)F)CC1)c1cc2c(c(F)c1F)OCCn1cncc1-2 [Compound 188A, 8,9-Difluoro-N-((1s,4s)-4-(2,2,2-trifluoroethoxy)cyclohexyl)-5,6-dihydrobenzo[f]imidazo[1,5-d][1,4]oxazepine-10-carboxamide] |  | 6.00 to 7.00
23 | Cc1c(C(=O)NC2CCC(OCC(F)(F)F)CC2)cc2c(c1C)OCCn1cncc1-2 (centres unmarked) [Compound 189A, 8,9-Dimethyl-N-(4-(2,2,2-trifluoroethoxy)cyclohexyl)-5,6-dihydrobenzo[f]imidazo[1,5-d][1,4]oxazepine-10-carboxamide] |  | 6.00 to 7.00
24 | COCCO[C@H]1CC[C@H](NC(=O)c2cc3c(c(Cl)c2C)OCCn2cncc2-3)CC1 [Compound 191A, 8-Chloro-N-((1r,4r)-4-(2-methoxyethoxy)cyclohexyl)-9-methyl-5,6-dihydrobenzo[f]imidazo[1,5-d][1,4]oxazepine-10-carboxamide] |  | 7.00 to 7.52
